In brackets after ≈: the same amount, converted by molar mass. Like-named read-outs stand apart in the source and are kept apart here.
Assays:
SOD2 [1] = test: Quantitative RT-PCR for SOD2 mRNA in SH-SY5Y neuroblastoma cells; type: cell-based, human; conditions: 1 μM, 6 h
Description: Referring to FIG. 1A and FIG. 1B, SH-SY5Y neuroblastoma cells were treated with vehicle or compounds (1 μM) for 6 or 24 hours, and cells were collected for RNA isolation (Trizol method). Quantitative RT-PCR for Manganese superoxide dismutase (SOD2; FIG. 1A) or brain-derived neurotrophic factor (BDNF, exon 1; FIG. 1B) indicates short-term upregulation of SOD2 and BDNF and sustained upregulation of BDNF (n=3-4/group, one-way ANOVA followed by unpaired t-test; […]).
Referring to FIG. 6, treatment of SH-SY5Y neuroblastoma cells with compounds (1 μM, 6 h) induced SOD2 mRNA expression >2 fold, as detected by q-RT-PCR. N=4/group, mean+/−SEM, 2-way ANOVA, post-hoc t-test. *p<0.05).

[2] = test system: SOD1 G93A transgenic mouse; test: Efficacy in the SOD1 G93A transgenic mouse model of ALS; type: in vivo; conditions: 25 mg/kg I.P. daily from day 96
Description: Briefly, Congenic SOD1-G93A mice were doced with up to 50 mg/kg of both compounds (IP) to evaluate any toxicity issues prior to initiating the efficacy study. Also, mice administered 20 mg of each compound had high plasma and brain levels at 30 minutes. Next, individually genotyped SOD1-G93A mice (Prize4life-Jackson Labs) were treated with each compound (25 mg/kg, IP) at disease onset (day 96). The treatment extended survival, reduced weight loss and improved the neurologic symptoms. […] The average weight within the groups before the treatment was similar.
While compounds which increase SOD2 expression and activity have potential utility in a number of neurodegenerative diseases involving ROS overproduction, it was decided to test these two compounds in a mouse model of ALS for a variety of reasons, including the evidence for oxidative stress in ALS (described above), the ability of these compounds to induce SOD2 in a motor neuron-like mouse cell line (NSC-34; FIG. 3B), and the availability of a mouse model with dysfunction in SOD1 (human SOD1 G93A transgenic mouse; Jackson Laboratory). The pilot experiment involved treating six wildtype and six SOD1 G93A transgenic males on the C57BL/6 background with 25 mg/kg compound no. 1 and compound no. 2 I.P. daily, beginning around disease onset (day 96; FIG. 4A and FIG. 4B). Mouse survival and behavioral phenotype were observed based on guidelines from “Working with ALS mice: JAX handbook,” using a 4-point severity score (FIG. 4C).
Referring to FIG. 4A and FIG. 4B, SOD1 G93A mice received daily IP injections of saline (control) or compounds (25 mg/kg) starting on day 96.
Referring. To FIG. 4C, progression from neurological score 1 was delayed only by compound no. 2 (2 day delay, +30%), progression to higher (worse) scores was delayed by both compounds. *P<0.05; **P<0.01, 2-way ANOVA.

[3] = Plasma and brain levels after I.P. dosing of SOD1 G93A mice; type: in vivo; conditions: 50 mg/kg I.P., within 30 minutes
NF-κB = test: High throughput assay for NF-κB reporter activity (luciferase) in stably transfected SH-SY5Y cells; type: cell-based, human; conditions: Homo sapiens; for maximal fold induction: 24 h, read-out: Emax; for EC50: 24 hr, read-out: EC50
Description: SH-SY5Y human neuroblastoma cell line was obtained from the American Tissue Culture collection (ATCC). A commercially available expression vector containing the NF-kB promoter enhancer region driving the firefly luciferase gene expression and a second plasmid containing the gene conferring resistance to blasticidin were used in a dual transfection approach to obtain a stable cell line. […] Luciferase activity was measured as a reporter of NF-kB activation using the Bright-Glo Luciferase assay kit (Cat. No. E2620, Promega, Madison, Wis.) according to the manufacturer's instructions. Cell viability was measured using the CellTiter-Glo Luminescent Cell Viability assay kit (Cat. No. G7572, Promega, Madison, Wis.) according to the manufacturer's instructions. Briefly, cells were equilibrated at room temperature for 30 min prior to the addition of Bright-Glo to the white opaque plates or CellTiter-Glo to the black clear bottom plates. A volume of assay buffer equal to the volume of cell media was added to each well and incubated for five min to allow complete cell lysis. All procedures were performed in the dark.

In vivo PK (I.V./P.O.) = test: In vivo PK (I.V./P.O.); design: species or system mice; conditions: for half-life: male, CD1, mouse, plasma
Description: Before the studies above were initiated, congenic SOD1 G93A mice were dosed with 50 mg/kg of compound no. 1 and compound no. 2 via I.P. injection to rule out any toxicity issues prior to initiating the efficacy study (FIG. 4A-C).
The experiments will involve the administration of compounds to 5-6 week old CD1 male mice. Mice are dosed by either a 1 mg/kg IV bolus or 5 mg/kg oral gavage. Blood samples are collected by cardiac puncture at 0, 0.25, 0.5, 1, 2, 4, 6, 8, 12, and 24 hrs. There will be three mice per time point. Plasma concentration over time will be determined by LC/MS from which the standard PK parameters of clearance, volume of distribution, t1/2 and % F can be derived using WinNoLin software (Pharsight Inc.). This will require a total of 60 mice per compound. Plasma will be analyzed by reverse phase chromatography with MS/MS detection operating in the positive ion mode using multiple reaction monitoring using an internal standard and Applied Biosystems Analyst 1.4 software. Peak time (when maximum plasma drug concentration occurs), peak drug level [approximate maximum concentrations of drug in plasma (Cmax)] and t1/2 for drug elimination will be estimated for each tested compound. Bioavailability (F) will be calculated from the ratio of AUCPO/AUCIV and expressed as a percentage. To determine levels in brain, six additional mice will be dosed with 1 mg/kg I.V. and sacrificed at 0.25 and 1 hr. Brain and spinal cord samples will be collected at these two time points, quick frozen in an ice box and kept at −75±15° C. All samples will be weighed and homogenized with phosphate buffered saline (PBS) by brain weight (g) to PBS volume (mL) ratio 1:3 before analysis. The actual concentration is the detected value multiplied by the dilution factor.

SOD2 [4] = test: SOD2 protein expression and SOD activity in primary rat cortical cultures; type: cell-based
From the text: N=3-6/group, mean+/−SEM, *p<0.05, **p<0.01, 2-way ANOVA, post-hoc t-test.

SOD2 [5] = test: Quantitative RT-PCR for SOD2 mRNA in NSC-34 neuroblastoma cells; type: cell-based, mouse; conditions: NSC-34, 1 μM, 24 h
Solubility = type: physicochemical; conditions: buffer, pH 7.4, aqueous buffer, kinetic from dmso stock
From the text: A standard panel of in vitro ADME assays will be utilized to assess drug-like properties of compounds and to inform subsequent in vivo PK studies. These assays include: (a) Permeability: MDCK (Madin Darby Canine Kidney) cells transfected with the MDR1 gene encoding for the multi-drug resistant transporter (Pgp) will be utilized to determine a compound's ability to permeate the membrane in apical to basolateral (A-B) and basolateral to apical (B-A) directions. The derived apparent permeability coefficient (Papp) provides an estimate of passive permeability; a ratio of Papp in the B-A/A-B direction gives an estimate of transporter efflux; (b) Solubility: Kinetic solubility is an important parameter for accurate determinations of the dose response. This is estimated using the shake flask method with a μSol Explorer (PION, Billerica, Mass.) at pH 7.4. Compounds are added as a DMSO solution to buffer. The average of two determinations at pH 7.4 will be reported. Solubility at pH 7.4 is relevant for in vitro assays; (c) Metabolic Stability: The potential for a high metabolic clearance compound is estimated using a liver microsome assay. […] The disappearance of the parent molecule is measured by liquid chromatography/mass spectroscopy (LC/MS) detection. […]

[6] = I.V./P.O., 1 and 5 mg/kg, respectively
[7] = I.V./P.O., 1 and 5 mg/kg, respectively, read-out: plasma half-life (t1/2)

half-life (In vivo PK (I.V./P.O.); iv, 1 mg/kg, I.V., read-out: I.V. t1/2 (converted)) [min]	orally bioavailable (In vivo PK (I.V./P.O.); oral) [%]	solubility (Solubility) [µM]	Structure (SMILES)	SOD2 mRNA expression (SOD2 [1]; q-RT-PCR) [fold]	SOD2 mRNA expression (SOD2 [1]; SH-SY5Y)	progression to higher (worse) neurological scores / score of 4 [2]	survival [2]	plasma and brain levels [3]	maximal fold induction (NF-κB)	EC50 (NF-κB) [µM]	oral bioavailability (In vivo PK (I.V./P.O.); [6])	half-life (In vivo PK (I.V./P.O.); [7]) [min]	SOD2 protein expression (SOD2 [4])	SOD activity (SOD2 [4])	SOD2 mRNA expression (SOD2 [5])
			O=C(/C=C\Nc1ccccc1Br)c1ccc2c(c1)OCO2 [Compound 1, (Z)-1-(Benzo[d][1,3]dioxol-5-yl)-3-((2-bromophenyl)amino)prop-2-en-1-one]	~2	induce SOD2	delayed	significantly prolonged	substantial plasma and brain levels	26	0.5	lack of oral bioavailability	< 5	induce SOD2	increase	induce SOD2
			Cc1cccnc1Nc1nc(-c2ccccn2)cs1 [Compound 2]	~2	induce SOD2	delayed	significantly prolonged	substantial plasma and brain levels	40	0.21	lack of oral bioavailability	< 5	induce SOD2	increase	induce SOD2
84	16	56 (≈ 16.7 µg/mL)	O=C(O)c1cccc(-c2cnc(Nc3ccccc3F)o2)c1 [Compound 40, 3-(2-((2-Fluorophenyl)amino)oxazol-5-yl)benzoic Acid]												
